Values of other authors as cited in patent publication US20060111347A1, “Substituted sulfones and methods of use” (AMGEN INC., priority 2004, published 2006).
No end group written: not given here.

Conditions: degraded by peptidases

RPPGFSPFR [BK, Bradykinin]
half-life of BK in plasma: approximately 17 seconds
